{"source": "patent US5484584A", "about": "“Therapeutic and diagnostic use of modified polymeric microcapsules” (priority 1992, dated 1996)", "assay": "In vivo tissue distribution of 131I-ethyliopanoate loaded microcapsules after i.v. injection", "parameters": "species or system rat", "conditions": "rats, 5 uCi radiotracer", "experimental": "PBLG and estrone-PBLG microcapsules loaded with [^131 I]ethyliopanoate (5.7 μCi in […] of water) were administered to rats in the tail vein. Rats (N=3/group) were sacrificed at 1, 3, 6, and 24 hours after injection. The percentage of injected dose in an organ or tissue was determined by a gamma counter.\nEstrone conjugated poly-benzyl-L-glutamate microcapsules loaded with ^131 I-labeled ethyliopanoate were injected into rats (three per group) via the tail-vein (5.7 μCi in 0.3 ml water). Control groups were given only the ^131 I-labeled iopanoic acid. Rats were sacrificed at 1, 3, 6 and 24 hours post injection. The percent of injected dose per organ or per tissue weight was determined by a COBRA Auto-gamma counter (Packard, Meridien, Conn.)."}
{"smiles": "CCOC(=O)C(CC)Cc1c(I)cc(I)c(N)c1I", "note": "(stereo not drawn) [IOPA, ethyliopanoate]", "values": [{"measurement": "UTERUS TO MUSCLE RATIO", "setting": "1 hr", "result": "2.92 ± 0.464"}, {"measurement": "UTERUS TO MUSCLE RATIO", "setting": "3 hrs", "result": "3.60 ± 0.346"}, {"measurement": "UTERUS TO MUSCLE RATIO", "setting": "6 hrs", "result": "3.47 ± 0.122"}]}
